Like-named read-outs stand apart in the source and are kept apart here.
Assays:
[1] = test system: solubilizing enzyme of HB-EGF; test: Inhibition of TPA-stimulated release of HB-EGF from HT-1080 transfectant expressing HB-EGF/alkaline phosphatase fusion protein; format: cell-based, human; details: HT-1080 HB-EGF-AP transfectant, TPA 60 nM for 60 min, AP activity in conditioned medium (OD405)
Method: Human fibrosarcoma HT-1080 stable transfectant expressing fusion protein of HB-EGF and human placental alkaline phosphatase (AP) were used for following experiments.
The cultured transfectant was treated with Trypsin-EDTA solution, and suspended in Minimum Essential Medium (without phenol red; supplemented with 10% heat-inactivated fetal calf serum; MEM) at the concentration of 1×10^5 cells/ml. Each 0.2 ml of the cell suspension was dispensed into individual wells of 96 well microplate, and incubated overnight in the CO2 incubator (37° C.). After the incubation, the conditioned medium was removed, and the wells were washed once with 0.2 ml of phosphate buffered saline. The cells were treated with 0.1 ml of compound solution [compound solutions in dimethylsulfoxide (DMSO) were diluted 100 times with MEM] for 30 min at 37° C. Then the compound solutions were removed, and cells were treated with 0.2 ml of TPA solution (120 μM) of stock solution was diluted to 60 nM with MEM) containing same concentration of the compound for 60 min at 37° C. The cells treated same procedure without compound were used as control.
After these treatments, each 0.1 ml of conditioned medium was transferred to individual wells of new 96 well microplate and incubated at 65° C. for 10 min to inactivate endogenous alkaline phosphatase. One hundred microliter of substrate solution (1 mg/ml of p-nitrophenyl phosphate in 0.01% magnesium chloride/1 M diethanolamine) for AP was added to each well and incubated for 120 min at room temperature in the dark. The OD405 of each well was measured with microplate reader. The IC50 values of the compounds were calculated from the concentration-inhibition curves.

[2] = test system: epidermal hyperplasia induced by TPA; test: TPA-induced epidermal hyperplasia on dorsal skin of mice; format: in vivo, male BALB/c mice; details: ED50; topical in acetone at 1 minute, 24 and 48 hours after TPA; epidermal thickness 72 hours after TPA
Method: After backs of male BALB/c mice were shaved, 20 micro 1 of TPA-acetone solution (50 μM) was applied to the dorsal skin surface in an area of ca. 1 cm^2. A volume of 20 micro 1 of test compound-acetone solution was applied to the same area a minute, 24 hours and 48 hours after TPA application (the treated group). In the non-treated group, acetone was applied instead of the test compound. In the control group, acetone was applied instead of TPA and the test compound. The mice were sacrificed, and the skin tissues treated with TPA or the test compound were excised 72 hours after TPA application. Then the tissues were fixed with 10% formalin and embedded in paraffin according to the conventional method. The vertical sections including the center of the TPA- or the test compound-treated area were prepared and they were stained by hematoxylin-eosin. The epidermal thickness was measured using an ocular microscope. The amount of the test compound required for achieving 50% inhibition against the mean epidermal thickness of the non-treated group (ED50) was calculated, wherein the mean epidermal thickness of the non-treated group was 100% and that of the control group was 0%.

[3] = test system: re-epithelialization of skin wound; test: Re-epithelialization in mouse skin wound model; format: in vivo, male BALB/c mice; details: 50% inhibition of re-epithelialization; applied to 6-mm wound once a day
Method: Wound healing model was prepared according to the method described by Tsuboi, et al. [J. Dermatol., 19, 673-675 (1992)]. Briefly, after backs of male BALB/c mice were shaved, two full-thickness round wounds were prepared in parallel to anterior-posterior axis on the back of each mouse using a punch biopsy instrument (6-mm diameter). After the operation, a test compound dissolved or suspended in 0.1M phosphate-buffered saline containing 1.5% sodium carboxymethylcellulose (vehicle) was applied to each wound in a volume of 50 μl/wound. The wounds were left open. From the following day, the compound was applied to each wound once a day for 7 days (the treated group). In the control group, vehicle solution only was applied in the same manner. One day after the last application, mice were sacrificed and skin tissues around the anterior wound were excised. The tissues were fixed with 10% formalin and embedded in paraffin according to the conventional method. The sections were made perpendicularly to the anterior-posterior axis. Keratinocytes in the specimen were stained with an anti-keratin antibody. Measurements of wound size and epidermal migration were performed by using an image-analyzing software. Re-epithelialization was calculated as follows; [formula]
The amount of the test compound required for achieving 50% inhibition against the mean re-epithelialization of the control group (ED50) was calculated.

| Compound | IC50 ([1]; read-out: IC50) [nM] | Amount of test compound required for 50% suppression of epidermal hyperplasia [2] | ED50 [3] | IC50 [1] [nM] |
| --- | --- | --- | --- | --- |
| COc1ccc(S(=O)(=O)N2Cc3nccnc3CC2C(=O)NO)cc1 (single isomer, unassigned; (+)) [the compound(13), (+)-N-Hydroxy-6-(4-methoxybenzenesulfonyl)-5,6,7,8-tetrahydropyrido[3,4-b]pyrazine-7-carboxamide] | 350 | 350 10^−6 g/cm^2 | 4.5 10^−6 g/0.3 cm^2 | – |
| COCCCOc1ccc(S(=O)(=O)N2Cc3nccnc3CC2C(=O)NO)cc1 (single isomer, unassigned; (+)) [the compound(14), (+)-N-Hydroxy-6-[4-(3-methoxypropoxy)benzenesulfonyl]-5,6,7,8-tetrahydropyrido[3,4-b]pyrazine-7-carboxamide] | 53 | 300 10^−6 g/cm^2 | 9.8 10^−6 g/0.3 cm^2 | – |
| CCOc1ccc(S(=O)(=O)N2Cc3nccnc3CC2C(=O)NO)cc1 (single isomer, unassigned; (+)) [the compound(15), (+)-N-Hydroxy-6-(4-ethoxybenzenesulfonyl)-5,6,7,8-tetrahydropyrido[3,4-b]pyrazine-7-carboxamide] | 310 | 370 10^−6 g/cm^2 | 5.2 10^−6 g/0.3 cm^2 | – |
| CCCOc1ccc(S(=O)(=O)N2Cc3nccnc3CC2C(=O)NO)cc1 (single isomer, unassigned; (+)) [the compound(16), (+)-N-Hydroxy-6-(4-propoxybenzenesulfonyl)-5,6,7,8-tetrahydropyrido[3,4-b]pyrazine-7-carboxamide] | 1000 | – | 11.6 10^−6 g/0.3 cm^2 | – |
| COCCOc1ccc(S(=O)(=O)N2Cc3nccnc3CC2C(=O)NO)cc1 (single isomer, unassigned; (+)) [the compound(19), (+)-N-Hydroxy-6-[4-(2-methoxyethoxy)benzenesulfonyl]-5,6,7,8-tetrahydropyrido[3,4-b]pyrazine-7-carboxamide] | 360 | 200 10^−6 g/cm^2 | 16.6 10^−6 g/0.3 cm^2 | – |
| O=C(NO)C1Cc2nccnc2CN1S(=O)(=O)c1ccc(Oc2ccccc2)cc1 (single isomer, unassigned; (+)) [the compound(20), (+)-N-Hydroxy-6-(4-phenoxybenzenesulfonyl)-5,6,7,8-tetrahydropyrido[3,4-b]pyrazine-7-carboxamide] | 410 | 27 10^−6 g/cm^2 | 9.7 10^−6 g/0.3 cm^2 | – |
| CSCCCOc1ccc(S(=O)(=O)N2Cc3nccnc3CC2C(=O)NO)cc1 (single isomer, unassigned; (+)) [the compound(21), (+)-N-Hydroxy-6-[4-(3-methylthiopropoxy)benzenesulfonyl]-5,6,7,8-tetrahydropyrido[3,4-b]pyrazine-7-carboxamide] | – | 230 10^−6 g/cm^2 | 11.0 10^−6 g/0.3 cm^2 | 100 |
| CNC(=O)C(Cc1cccc2ccccc12)NC(=O)C(CC(=O)NO)CC(C)C [the compound d, [4-(N-hydroxyamino)-2 (R)-isobutylsuccinyl]-L-3-(1-naphtyl)-alanine-N-methylamide, reference compound] | 1700 | 40 10^−6 g/cm^2 | – | – |

— patent US20030229113A1, “Keratinocyte growth inhibitors and hydroxamic acid derivatives” (priority 2003, published 2003)
